Patent publication US20090131320A1, “PEPTIDES MODULATING THE ACTIVITY OF THE ENGRAILED TRANSCRIPTION FACTOR” (Centre National De La Recherche Scient., priority 2003, published 2009)
Entries after “also recorded” stand apart in the source; their conditions may differ.

T1: chick Engrailed-2 protein (Gallus gallus, UniProt Q05917)
T1 construct: expressed in transfected cells; host or cells: CHP100 neuroepithelial cell line, electroporated with pCL9mEn2
T1 sequence (Q05917 1-289): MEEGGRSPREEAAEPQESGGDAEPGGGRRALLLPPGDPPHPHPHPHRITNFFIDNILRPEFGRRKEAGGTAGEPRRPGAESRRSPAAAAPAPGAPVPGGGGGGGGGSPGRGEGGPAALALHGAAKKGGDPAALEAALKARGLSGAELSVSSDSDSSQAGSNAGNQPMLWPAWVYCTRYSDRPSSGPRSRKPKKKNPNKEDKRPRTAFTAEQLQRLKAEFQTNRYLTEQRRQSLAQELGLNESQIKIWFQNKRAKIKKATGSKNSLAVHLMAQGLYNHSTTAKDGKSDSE

T2: HDEn2C (chick Engrailed-2 protein from which amino acids 10 to 185 have been deleted) (Gallus gallus, UniProt Q05917, DEL10-185)
T2 construct: expressed in transfected cells; host or cells: CHP100 neuroepithelial cell line, electroporated with pCL9 mHDEn2C
T2 sequence (Q05917 with tags, fused parts or gaps DEL10-185): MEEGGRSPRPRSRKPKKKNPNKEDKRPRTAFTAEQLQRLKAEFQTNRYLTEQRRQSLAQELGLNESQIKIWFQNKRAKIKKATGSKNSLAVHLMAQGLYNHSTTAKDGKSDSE

B1: Engrailed-2: whole chick Engrailed-2 protein expressed from pCL9mEn2 under the CMV promoter (protein)
chain: T1 sequence (Q05917 1-289)

Assays:
[1] = target: T1, chick Engrailed-2 protein; test: Effect of peptides on activation of the MAP1B promoter by Engrailed-2 in CHP100 cells (luciferase); type: cell-based; conditions: for effect on the activation of MAP1B by Engrailed (in words): peptide + En2 cotransfected
Experimental: (§1) The transcriptional activity of Engrailed is evaluated as described by Montesinos et al. (J. Neurosci., 21, 3350-9, 2001), by measuring the expression of the luciferase reporter gene placed in the plasmid pMAP-luc under the control of a promoter that is a target for Engrailed, the MAP1B (microtubule-associated protein 1B) promoter.
(§2) Cells of the neuroepithelial line CHP 100 (Schlesinger et al, Cancer Res. 36, […], 1976) are cultured in RPMI 1640 (Life Technologies, Gaithersburg, Md.) supplemented with 16 mM glucose, 15% fetal calf serum, 5 U/ml of penicillin and 5 μg/ml of streptomycin, and cotransfected by electroporation with pMAP-luc and one of the following vectors:
(§3) pCL9mEn2 (Mainguy et al., Natural Biotechnol. 18: 746-749, 2000) which contains the sequence encoding the whole chick Engrailed-2 protein, under the control of the CMV promoter;
(§4) The electroporation is carried out with a maximum of 10 μg of plasmid DNA (2 μg of reporter plasmid pMAP-luc+variable amounts of En2 expression vector) per 8×10^5 cells in 350 μl of medium, at 1050 μF and at […]. 400 μl of medium are then added and the combination is allowed to stand for 10 min. The cells are then placed in culture, after washing, in two dishes (3.5 cm diameter).
(§5) The luciferase activity is assayed 24 hours after transfection. The cells are rinsed with PBS. Lysis buffer (20 mM Tris/H3PO4, pH 7.8, 10 mM MgCl2, 15% glycerol, 1 mM EDTA, 1% Triton-X 100, 1.25 mM ATP, 10 μg/ml luciferin) is added to the cells. After incubation at 4° C. for 30 min, the luciferase activity is measured by luminometry (Berthold Lumat LB 9501 luminometer).
The CHP100 cells are cotransfected by electroporation, as defined above, with pMAP-luc (2 μg), pCL9mEn2 or pCL9 mHDEn2C (4 μg) and 4 μg of pCS2-pep1 or pCS2-pep2.

Engrailed [2] = test: In vivo effect on the transcriptional activity of Engrailed, pMAP-lacZ β-galactosidase reporter in the neural tube of chick embryos; conditions: chick embryo neural tube HH8-HH10, electroporation, 24 h
Experimental: The effect of pep1 or pep2 on the transcriptional activity of Engrailed was evaluated by measuring the expression of the β-galactosidase reporter gene placed in the plasmid pMAP-lacZ (described by Montesinos et al., 2001, mentioned above) under the control of the MAP1B promoter, in the neural tube of chick embryos at the HH8-HH10 stage.
The vectors pCS2-pep1 or pCS2-pep2, and also the vector pMAP-lacZ vector (each vector is used at a concentration of 1 μg/μl), were introduced by electroporation into the neural tube of chick embryos at the HH8-HH10 stage in accordance with the protocol of Muramatsu et al. (1997), with a BTX ECM 830 electroporator (4 pulses of 25 V and 50 msec) (Genetronics, San Diego, Calif.). The vectors were injected into the neural tube using a micropipette.

MAP1B promoter = MAP1B promoter luciferase reporter (pMAP-luc) in CHP 100 cells, protein or peptide alone; type: cell-based; conditions: luciferase 24 hours after transfection
Experimental: as §1, §2, §3
pCL9mEn2ΔH1 (Joliot et al., Curr Biol. 8: 856-863, 1998), which contains the sequence encoding the chick Engrailed-2 protein from which amino acids 36 to 46 of the homeodomain (DNA-binding sequence) have been deleted, under the control of the CMV promoter;
(§6) pCL9 mHDEn2C, which contains the sequence encoding the chick Engrailed-2 protein from which amino acids 10 to 185 have been deleted, under the control of the CMV promoter.
as §4, §5

Engrailed [3] = test: Effect of peptides on the activity of Engrailed in primary cultures of mesencephalic neurons (pMAP-luc); type: cell-based; conditions: primary mouse embryonic mesencephalic neurons; for effect on the activation of the MAP1B promoter in neurons: endogenous Engrailed
Experimental: In order to verify the functionality of peptides 1 and 2 in a physiological cellular context, the effect of these peptides was tested in primary cultures of mouse embryonic mesencephalic neurons.
Fragments of mouse mesencephalon (embryonic day 13.5) are incubated at 24° C. for 5 min in trypsin-EDTA, then washed in a phosphate buffer, pH 7.5, supplemented with 33 mM glucose (PBS) and 10% fetal calf serum, and subsequently incubated at 37° C. for 10 min in […] of DnaseI (Sigma, Saint Louis, Mo.). The cells are dissociated mechanically, washed three times with PBS, and placed in culture at a density of 200 000 cells/cm^2, in wells pre-saturated with D,L-poly-ornithine (1.5 μg/ml) and laminin (5 μg/ml). The culture medium (MMS) consists of DMEM/F12 (1/1, Life Technologies, Cergy, France), with 33 mM glucose, 2 mM glutamine, 10 mM HEPES, pH 7.4, 9 mM NaHCO^−3, 5 U/ml of penicillin and 5 μg/ml of streptomycin. Added to MSS are 0.1% of ovalbumin, 25 μg/ml of insulin, 100 μg/ml of transferrin, 20 nM of progesterone, 60 μM of putrescine and 30 nM selenium (M2OV).
The day after the cells were placed in culture, the medium, in each well, is replaced with 600 μl of MSS, without penicillin or streptomycin. 100 μl of the transfection mixture comprising pMAP-luc (0.5 μg) and 0.5 μg of pCS2-pep1 or pCS2-pep2, and 1 mg/ml of Lipofectamine 2000 (Invitrogen) in OPTI-MEM medium (qs 100 μl), mixed beforehand for 20 min at 24° C., are added to each well. The cells are then incubated at 37° C. for 2 h 30 min. The medium is then replaced with M20V.

[4] = target: T2, HDEn2C (chick Engrailed-2 protein from which amino acids 10 to 185 have been deleted); test: Effect of peptides on activation of the MAP1B promoter by HDEn2C (Engrailed homeodomain) in CHP100 cells (luciferase); type: cell-based; conditions: HDEn2C + peptide cotransfected
Experimental: as §1, §2, §6
The electroporation is carried out with a maximum of 10 μg of plasmid DNA (2 μg of reporter plasmid pMAP-luc+variable amounts of En2 expression vector) per 8×10^5 cells in 350 μl of medium, at 1050 μF and at […]. 400 μl of medium are then added and the combination is allowed to stand for 10 min. […]
The luciferase activity is assayed 24 hours after transfection. […] After incubation at 4° C. for 30 min, the luciferase activity is measured by luminometry (Berthold Lumat LB 9501 luminometer). […]

Row | Molecule | effect on the activation of MAP1B by Engrailed (in words) [1] | effect on the activation of the MAP1B promoter in vivo (β-galactosidase) (Engrailed [2]) | activation of the MAP1B promoter by the protein or peptide alone (MAP1B promoter) | activating effect compared with peptide 1 in neurons (Engrailed [3]) | effect on the activation of the MAP1B promoter in neurons (Engrailed [3]) | effect on the activation of MAP1B by the HDEn2C peptide [4] | increase of the activation of MAP1B by Engrailed ([1]; peptide introduced at the same time as Engrailed-2 (4 μg each vector))
1 | KVWDIRYTTPHA [aOTX2, reference compound] | does not modify | – | – | – | – | – | –
2 | WSWNEEVWFPFT [Peptide 2] | inhibitor; also recorded: inhibitory effect | increases the activation | no effect | greater than that of peptide 1 | increased | increases the activation | –
3 | SWWETQLIASSG [Peptide 1] | activating effect | increased | no action | – | increased | greatly increased | approximately 50%
4 | HOXA5: another homeodomain protein | – | – | activated | – | – | – | –
5 | B1 | – | – | capable of activating | – | – | – | –
